Laboratory results published in patent US12138256B2, “Treatment of cardiopulmonary disorders” (Bayer Aktiengesellschaft, priority 2021, dated 2024).

Test system: pulmonary vascular resistance (PVR)
Assay: Phase 1b, patients with PAH or CTEPH, inhaled single doses, right heart catheterization: PVR and mPAP (C-4.4)
Format: in vivo, human
Method: Patients with PAH or CTEPH were treated in a clinical phase 1b study with escalating orally inhaled single* doses of 240 μg (2 capsules of 120 μg), 480 μg, 1000 μg, 2000 (2 capsules of 1000 μg) or 4000 μg (4 capsules of 1000 μg) of a dry powder of example 4 (see under D-1, e.g. tables 17 and 20), inserted into a handheld inhalation device, inhaled by deep inhalative breath into the deep parts of the lung. (*single dose means the administration of one dosage form/capsule as well as administration of two or more dosage forms/capsules simultaneously or consecutively within a short time period). The included patients had no background treatment with standard of care (SoC) medication for PAH or CTEPH (such as endothelin antagonists, prostanoids, phosphodiesterase type 5 inhibitor or soluble guanylate cyclase stimulators). Patients in this study underwent invasive right heart catheterization as medically indicated routine diagnostic. Primary objective of the study was to investigate the peak percent reduction from baseline in PVR. Patients had to have a baseline pulmonary artery pressure (mPAP) of ≥25 mmHg and a PVR of ≥400 dyn·sec·cm^−5 (5 Wood Units) and were not to show vaso-responsiveness to initial iNO inhalation testing to be included in the per protocol analysis. Plasma concentrations (pharmacokinetics) of the administered drug at several time points after administration were measured and safety and tolerability was assessed.
The study is divided into two parts, Part A and Part B. In Part A escalating aforementioned single doses were administered to patients without background treatment with standard of care (SoC) medication for PAH or CTEPH (such as endothelin antagonists, prostanoids, phosphodiesterase type 5 inhibitor or soluble guanylate cyclase stimulators). In Part B, after finalization of Part A, a selected dose from PartA will be tested in further patients without background SoC treatment (group 1) and additionally in patients on monotherapy with SoC (group 2) and on dual combination therapy with SoC (group 3).
The PVR is a derived parameter from parameters directly measured during the right heart catheterization procedure. The direct parameters included in the calculation are: mean pulmonary arterial pressure [mmHg](mPAP), pulmonary capillary wedge pressure [mmHg] (PCWP), and cardiac output [l/min] (CO). The PVR is calculated according to the formula: PVR [dyn*see*cm^−5]=80*(mPAP-PCWP)/CO.
Overall 38 patients received a dose of dry powder of example 4. A total of 4 patients in each dose group were included into the per protocol set as planned (total 20 patients). A dose-dependent mean change of PVR from baseline could be clearly observed peaking in an enduring mean change of approximately −30% in the 2000 μg and 4000 μg groups (for details of PVR see FIG. 82 and table C4.4.1). The decreases in PVR were predominantly driven by decreases in pulmonary arterial pressure (for details of mean PAP see FIG. 83 and table C4.4.2). A mean peak change level of −20%—as the predefined relevant threshold level—was clearly exceeded peaking in the 2000 μg and 4000 μg groups (mean peak changes were: −21.0%, −16.1%, −25.9%, −38.1%, −36.3% for 240, 480, 1000, 2000, and 4000 μg, respectively). The magnitude of mean change in PVR of −30% from baseline was at the same level as for the inhaled competitor Treprostinil (Tyvaso®) after single administration in a historical comparison [Voswinckel et al, Journal of American College of Cardiology Vol. 48, No. 8, 2006 Oct. 17, 2006:1672-81]. However, the effect after example 4 application was advantageously sustained with no decrease in response until the end of the measurement period of 3 h (a measurement period of >3 h was technically not feasible for the patients with right heart catheter in the study). […] Increase of systemic cGMP (cyclic Guanosine Monophosphate) confirmed strong target engagement of sGC activation. […]

[1] = 240 μg, 0 D 00 H 00 M (baseline)
[2] = 480 μg, 0 D 00 H 00 M (baseline)
[3] = 1000 μg, 0 D 00 H 00 M (baseline)
[4] = 2000 μg, 0 D 00 H 00 M (baseline)
[5] = 4000 μg, 0 D 00 H 00 M (baseline)

O=C(O)c1ccc(CCN(CCc2ccccc2OCc2ccc(-c3ccc(C(F)(F)F)cc3)cc2Cl)[C@H]2CCCc3nc(C(=O)O)ccc32)cc1 [example 4, (5S)-{[2-(4-Carboxyphenyl)ethyl][2-(2-{[3-chloro-4′-(trifluoromethyl)biphenyl-4-yl]methoxy}phenyl)-ethyl]amino}-5,6,7,8-tetrahydroquinoline-2-carboxylic acid]
mean peak change of PVR from baseline (240 μg): −21.0%
mean pulmonary arterial pressure (mPAP), mean ± SD [1]: 42.8 ± 11.1 mmHg
pulmonary vascular resistance (PVR), mean ± SD [1]: 788.338 ± 416.914 dyn·sec·cm^−5
mean pulmonary arterial pressure (mPAP), mean ± SD (240 μg, 0 D 00 H 30 M): 42.5 ± 11.0 mmHg
pulmonary vascular resistance (PVR), mean ± SD (240 μg, 0 D 00 H 30 M): 749.012 ± 398.928 dyn·sec·cm^−5
mean pulmonary arterial pressure (mPAP), mean ± SD (240 μg, 0 D 01 H 00 M): 44.3 ± 10.4 mmHg
pulmonary vascular resistance (PVR), mean ± SD (240 μg, 0 D 01 H 00 M): 734.427 ± 396.799 dyn·sec·cm^−5
mean pulmonary arterial pressure (mPAP), mean ± SD (240 μg, 0 D 01 H 30 M): 43.0 ± 8.0 mmHg
pulmonary vascular resistance (PVR), mean ± SD (240 μg, 0 D 01 H 30 M): 726.362 ± 364.099 dyn·sec·cm^−5
mean pulmonary arterial pressure (mPAP), mean ± SD (240 μg, 0 D 02 H 00 M): 39.5 ± 7.9 mmHg
pulmonary vascular resistance (PVR), mean ± SD (240 μg, 0 D 02 H 00 M): 710.844 ± 410.668 dyn·sec·cm^−5
mean pulmonary arterial pressure (mPAP), mean ± SD (240 μg, 0 D 02 H 30 M): 42.0 ± 6.5 mmHg
pulmonary vascular resistance (PVR), mean ± SD (240 μg, 0 D 02 H 30 M): 716.209 ± 419.311 dyn·sec·cm^−5
mean pulmonary arterial pressure (mPAP), mean ± SD (240 μg, 0 D 03 H 00 M): 39.0 ± 4.2 mmHg
pulmonary vascular resistance (PVR), mean ± SD (240 μg, 0 D 03 H 00 M): 657.829 ± 291.191 dyn·sec·cm^−5
mean peak change of PVR from baseline (480 μg): −16.1%
mean pulmonary arterial pressure (mPAP), mean ± SD [2]: 55.0 ± 8.6 mmHg
pulmonary vascular resistance (PVR), mean ± SD [2]: 1055.863 ± 317.077 dyn·sec·cm^−5
mean pulmonary arterial pressure (mPAP), mean ± SD (480 μg, 0 D 00 H 30 M): 52.3 ± 8.4 mmHg
pulmonary vascular resistance (PVR), mean ± SD (480 μg, 0 D 00 H 30 M): 1003.264 ± 300.639 dyn·sec·cm^−5
mean pulmonary arterial pressure (mPAP), mean ± SD (480 μg, 0 D 01 H 00 M): 53.8 ± 9.1 mmHg
pulmonary vascular resistance (PVR), mean ± SD (480 μg, 0 D 01 H 00 M): 1007.504 ± 290.883 dyn·sec·cm^−5
mean pulmonary arterial pressure (mPAP), mean ± SD (480 μg, 0 D 01 H 30 M): 55.0 ± 8.0 mmHg
pulmonary vascular resistance (PVR), mean ± SD (480 μg, 0 D 01 H 30 M): 1031.647 ± 252.210 dyn·sec·cm^−5
mean pulmonary arterial pressure (mPAP), mean ± SD (480 μg, 0 D 02 H 00 M): 52.5 ± 7.9 mmHg
pulmonary vascular resistance (PVR), mean ± SD (480 μg, 0 D 02 H 00 M): 908.704 ± 252.569 dyn·sec·cm^−5
mean pulmonary arterial pressure (mPAP), mean ± SD (480 μg, 0 D 02 H 30 M): 54.0 ± 9.7 mmHg
pulmonary vascular resistance (PVR), mean ± SD (480 μg, 0 D 02 H 30 M): 1038.344 ± 263.837 dyn·sec·cm^−5
mean pulmonary arterial pressure (mPAP), mean ± SD (480 μg, 0 D 03 H 00 M): 56.0 ± 11.1 mmHg
pulmonary vascular resistance (PVR), mean ± SD (480 μg, 0 D 03 H 00 M): 909.265 ± 259.510 dyn·sec·cm^−5
mean peak change of PVR from baseline (1000 μg): −25.9%
mean pulmonary arterial pressure (mPAP), mean ± SD [3]: 34.3 ± 4.9 mmHg
pulmonary vascular resistance (PVR), mean ± SD [3]: 608.898 ± 135.153 dyn·sec·cm^−5
mean pulmonary arterial pressure (mPAP), mean ± SD (1000 μg, 0 D 00 H 30 M): 33.8 ± 7.5 mmHg
pulmonary vascular resistance (PVR), mean ± SD (1000 μg, 0 D 00 H 30 M): 645.387 ± 211.946 dyn·sec·cm^−5
mean pulmonary arterial pressure (mPAP), mean ± SD (1000 μg, 0 D 01 H 00 M): 31.8 ± 7.4 mmHg
pulmonary vascular resistance (PVR), mean ± SD (1000 μg, 0 D 01 H 00 M): 558.324 ± 169.860 dyn·sec·cm^−5
mean pulmonary arterial pressure (mPAP), mean ± SD (1000 μg, 0 D 01 H […]): 32.0 ± 8.9 mmHg
pulmonary vascular resistance (PVR), mean ± SD (1000 μg, 0 D 01 H […]): 542.130 ± 187.227 dyn·sec·cm^−5
mean pulmonary arterial pressure (mPAP), mean ± SD (1000 μg, 0 D 02 H 00 M): 32.3 ± 9.0 mmHg
pulmonary vascular resistance (PVR), mean ± SD (1000 μg, 0 D 02 H 00 M): 487.951 ± 144.546 dyn·sec·cm^−5
mean pulmonary arterial pressure (mPAP), mean ± SD (1000 μg, 0 D 02 H […]): 33.5 ± 10.7 mmHg
pulmonary vascular resistance (PVR), mean ± SD (1000 μg, 0 D 02 H […]): 537.812 ± 204.640 dyn·sec·cm^−5
pulmonary vascular resistance (PVR), mean ± SD (1000 μg, 0 D 03 H 00 M): 535.636 ± 235.786 dyn·sec·cm^−5
mean peak change of PVR from baseline (2000 μg): −38.1%
mean change of PVR from baseline (2000 μg and 4000 μg groups, single inhaled dose, per protocol set N=4 each): approximately −30%
mean pulmonary arterial pressure (mPAP), mean ± SD [4]: 33.5 ± 3.4 mmHg
pulmonary vascular resistance (PVR), mean ± SD [4]: 468.608 ± 20.537 dyn·sec·cm^−5
mean pulmonary arterial pressure (mPAP), mean ± SD (2000 μg, 0 D 00 H 30 M): 33.3 ± 6.3 mmHg
pulmonary vascular resistance (PVR), mean ± SD (2000 μg, 0 D 00 H 30 M): 464.586 ± 58.200 dyn·sec·cm^−5
mean pulmonary arterial pressure (mPAP), mean ± SD (2000 μg, 0 D 01 H 00 M): 30.8 ± 5.6 mmHg
pulmonary vascular resistance (PVR), mean ± SD (2000 μg, 0 D 01 H 00 M): 421.730 ± 81.602 dyn·sec·cm^−5
mean pulmonary arterial pressure (mPAP), mean ± SD (2000 μg, 0 D 01 H 30 M): 28.5 ± 7.3 mmHg
pulmonary vascular resistance (PVR), mean ± SD (2000 μg, 0 D 01 H 30 M): 340.782 ± 82.566 dyn·sec·cm^−5
mean pulmonary arterial pressure (mPAP), mean ± SD (2000 μg, 0 D 02 H 00 M): 27.0 ± 6.1 mmHg
pulmonary vascular resistance (PVR), mean ± SD (2000 μg, 0 D 02 H 00 M): 339.924 ± 105.884 dyn·sec·cm^−5
mean pulmonary arterial pressure (mPAP), mean ± SD (2000 μg, 0 D 02 H 30 M): 27.3 ± 6.0 mmHg
pulmonary vascular resistance (PVR), mean ± SD (2000 μg, 0 D 02 H 30 M): 338.404 ± 87.381 dyn·sec·cm^−5
mean pulmonary arterial pressure (mPAP), mean ± SD (2000 μg, 0 D 03 H 00 M): 27.5 ± 5.2 mmHg
pulmonary vascular resistance (PVR), mean ± SD (2000 μg, 0 D 03 H 00 M): 327.284 ± 25.882 dyn·sec·cm^−5
mean peak change of PVR from baseline (4000 μg): −36.3%
mean pulmonary arterial pressure (mPAP), mean ± SD [5]: 46.0 ± 8.1 mmHg
pulmonary vascular resistance (PVR), mean ± SD [5]: 713.998 ± 117.204 dyn·sec·cm^−5
mean pulmonary arterial pressure (mPAP), mean ± SD (4000 μg, 0 D 00 H 30 M): 43.0 ± 4.6 mmHg
pulmonary vascular resistance (PVR), mean ± SD (4000 μg, 0 D 00 H 30 M): 616.894 ± 97.774 dyn·sec·cm^−5
mean pulmonary arterial pressure (mPAP), mean ± SD (4000 μg, 0 D 01 H 00 M): 41.3 ± 4.6 mmHg
pulmonary vascular resistance (PVR), mean ± SD (4000 μg, 0 D 01 H 00 M): 542.417 ± 97.103 dyn·sec·cm^−5
mean pulmonary arterial pressure (mPAP), mean ± SD (4000 μg, 0 D 01 H 30 M): 40.3 ± 5.1 mmHg
pulmonary vascular resistance (PVR), mean ± SD (4000 μg, 0 D 01 H 30 M): 573.812 ± 123.865 dyn·sec·cm^−5
mean pulmonary arterial pressure (mPAP), mean ± SD (4000 μg, 0 D 02 H 00 M): 40.0 ± 5.3 mmHg
pulmonary vascular resistance (PVR), mean ± SD (4000 μg, 0 D 02 H 00 M): 501.07 ± 97.979 dyn·sec·cm^−5
mean pulmonary arterial pressure (mPAP), mean ± SD (4000 μg, 0 D 02 H […]): 39.8 ± 3.0 mmHg
pulmonary vascular resistance (PVR), mean ± SD (4000 μg, 0 D 02 H […]): 526.648 ± 144.679 dyn·sec·cm^−5
mean pulmonary arterial pressure (mPAP), mean ± SD (4000 μg, 0 D 03 H 00 M): 39.8 ± 4.1 mmHg
pulmonary vascular resistance (PVR), mean ± SD (4000 μg, 0 D 03 H 00 M): 493.103 ± 130.480 dyn·sec·cm^−5
duration of sustained PVR effect with no decrease in response (end of the measurement period): ≥ 3 h
tolerability (single inhaled doses 240 to 4000 μg): Overall good tolerability was seen including the highest dose of 4000 μg
